Results: patent US12351580B2, “NLRP3 modulators” (Innate Tumor Immunity, Inc., priority 2017, dated 2025)
pEC50: −log10 of the molar value.

Columns and labels:
[1] = biological target: T1, TLR8 (Homo sapiens, UniProt Q9NR97); assay: In vitro human TLR8 binding reporter assay (HEK-Blue, NF-kB/AP1-inducible SEAP); format: cell-based
T1 construct: host or cells: HEK-Blue cells (human HEK) co-expressing TLR8 and an NF-kB/AP1-inducible SEAP reporter
T1 sequence (Q9NR97 27-1041): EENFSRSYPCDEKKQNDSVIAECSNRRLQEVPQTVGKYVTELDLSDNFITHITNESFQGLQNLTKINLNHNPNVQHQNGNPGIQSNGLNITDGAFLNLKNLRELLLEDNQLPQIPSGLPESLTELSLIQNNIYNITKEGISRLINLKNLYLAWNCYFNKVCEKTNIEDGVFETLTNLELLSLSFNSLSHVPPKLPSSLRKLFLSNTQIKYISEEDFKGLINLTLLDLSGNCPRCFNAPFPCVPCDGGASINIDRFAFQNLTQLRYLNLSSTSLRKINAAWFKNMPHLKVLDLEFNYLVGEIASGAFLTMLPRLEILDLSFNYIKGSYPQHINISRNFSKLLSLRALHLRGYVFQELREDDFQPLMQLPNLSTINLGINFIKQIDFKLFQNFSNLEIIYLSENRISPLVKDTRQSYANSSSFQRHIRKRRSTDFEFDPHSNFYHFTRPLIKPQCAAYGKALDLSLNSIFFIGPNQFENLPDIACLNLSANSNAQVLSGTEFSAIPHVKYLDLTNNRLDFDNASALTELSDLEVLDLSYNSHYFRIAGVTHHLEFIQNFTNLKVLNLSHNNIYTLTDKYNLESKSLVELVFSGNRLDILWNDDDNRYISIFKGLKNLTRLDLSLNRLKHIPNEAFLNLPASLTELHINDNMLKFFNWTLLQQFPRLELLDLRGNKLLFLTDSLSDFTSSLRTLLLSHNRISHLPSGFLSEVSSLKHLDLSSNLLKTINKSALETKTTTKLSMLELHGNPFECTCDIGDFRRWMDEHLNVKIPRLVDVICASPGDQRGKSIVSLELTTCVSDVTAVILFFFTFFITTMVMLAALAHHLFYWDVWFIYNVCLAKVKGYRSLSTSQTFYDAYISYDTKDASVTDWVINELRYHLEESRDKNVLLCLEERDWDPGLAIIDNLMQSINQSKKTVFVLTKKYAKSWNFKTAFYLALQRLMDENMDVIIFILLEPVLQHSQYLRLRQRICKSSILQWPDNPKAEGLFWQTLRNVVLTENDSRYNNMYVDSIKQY
Procedure, shortened: (§1)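 Reporter cells are plated at 15,000 per well and rested 24 h. Next day, test compounds or DMSO are dispensed, followed by 18 h incubation at 37 °C, 5% CO2.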

[2] = biological target: T2, TLR7 (Homo sapiens, UniProt Q9NYK1); assay: In vitro human TLR7 binding reporter assay (HEK-Blue, NF-kB/AP1-inducible SEAP); format: cell-based; conditions: activity range symbols
T2 construct: host or cells: HEK-Blue cells (human HEK) co-expressing TLR7 and an NF-kB/AP1-inducible SEAP reporter
T2 sequence (Q9NYK1 27-1049): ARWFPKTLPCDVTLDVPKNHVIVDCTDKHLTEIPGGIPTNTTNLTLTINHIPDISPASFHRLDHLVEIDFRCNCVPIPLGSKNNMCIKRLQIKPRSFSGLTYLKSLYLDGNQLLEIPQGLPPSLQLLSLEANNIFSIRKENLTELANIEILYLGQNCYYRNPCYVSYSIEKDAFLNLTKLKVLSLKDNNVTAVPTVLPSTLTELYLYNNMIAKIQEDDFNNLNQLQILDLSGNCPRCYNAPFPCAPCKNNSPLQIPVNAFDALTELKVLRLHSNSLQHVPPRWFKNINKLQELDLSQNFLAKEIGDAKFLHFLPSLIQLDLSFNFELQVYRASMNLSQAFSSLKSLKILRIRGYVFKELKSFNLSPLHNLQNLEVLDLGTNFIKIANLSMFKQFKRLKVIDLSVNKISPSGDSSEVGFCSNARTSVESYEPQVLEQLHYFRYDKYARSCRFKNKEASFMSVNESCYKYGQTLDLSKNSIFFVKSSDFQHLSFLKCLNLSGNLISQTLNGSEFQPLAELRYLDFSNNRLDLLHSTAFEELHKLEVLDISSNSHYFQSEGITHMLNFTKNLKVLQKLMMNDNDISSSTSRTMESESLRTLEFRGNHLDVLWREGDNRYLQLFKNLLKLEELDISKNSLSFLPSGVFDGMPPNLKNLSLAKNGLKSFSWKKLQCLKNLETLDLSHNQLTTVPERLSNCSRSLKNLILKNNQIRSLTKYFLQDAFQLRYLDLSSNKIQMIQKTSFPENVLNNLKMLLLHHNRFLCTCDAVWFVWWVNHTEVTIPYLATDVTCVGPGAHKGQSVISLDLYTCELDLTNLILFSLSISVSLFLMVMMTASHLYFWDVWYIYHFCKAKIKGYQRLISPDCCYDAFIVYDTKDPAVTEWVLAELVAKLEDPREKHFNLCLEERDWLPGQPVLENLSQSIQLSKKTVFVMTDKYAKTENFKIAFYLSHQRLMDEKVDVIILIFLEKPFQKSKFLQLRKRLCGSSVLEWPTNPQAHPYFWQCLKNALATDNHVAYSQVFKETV
Procedure, shortened: as §1

Structure (SMILES) | pEC50 ([1]; activity range symbols) | pEC50 [2] | pEC50 ([1]; numeric bounds)
CCN(Cc1nc2c(N)nc3cc(-c4cc[nH]n4)ccc3c2[nH]1)C(=O)c1cnccn1 [Compound 442, N-{[4-amino-7-(1H-pyrazol-3-yl)-1H-imidazo[4,5-c]quinolin-2-yl]methyl}-N-ethylpyrazine-2-carboxamide] | < 4.00 | < 4.00 | –
CCN(Cc1nc2c(N)nc3cc(-c4cc[nH]n4)ccc3c2[nH]1)C(=O)Cc1ccccc1 [Compound 443, N-{[4-amino-7-(1H-pyrazol-3-yl)-1H-imidazo[4,5-c]quinolin-2-yl]methyl}-N-ethyl-2-phenylacetamide] | – | < 4.00 | < 4.21
CCN(Cc1nc2c(N)nc3cc(-c4cc[nH]n4)ccc3c2[nH]1)C(=O)CCCc1ccccc1 [Compound 444, N-{[4-amino-7-(1H-pyrazol-3-yl)-1H-imidazo[4,5-c]quinolin-2-yl]methyl}-N-ethyl-4-phenylbutanamide] | 4.70 to 6.00 | < 4.00 | –
CCN(Cc1nc2c(N)nc3cc(-c4cc[nH]n4)ccc3c2[nH]1)C(=O)CCC(C)C [Compound 445, N-{[4-amino-7-(1H-pyrazol-3-yl)-1H-imidazo[4,5-c]quinolin-2-yl]methyl}-N-ethyl-4-methylpentanamide] | – | < 4.00 | < 4.21
CCN(Cc1nc2c(N)nc3cc(-c4cc[nH]n4)ccc3c2[nH]1)C(=O)c1cccn1C [Compound 446, N-{[4-amino-7-(1H-pyrazol-3-yl)-1H-imidazo[4,5-c]quinolin-2-yl]methyl}-N-ethyl-1-methyl-1H-pyrrole-2-carboxamide] | < 4.00 | < 4.00 | –
CCN(Cc1nc2c(N)nc3cc(-c4cc[nH]n4)ccc3c2[nH]1)C(=O)CCc1ccccc1 [Compound 447, N-{[4-amino-7-(1H-pyrazol-3-yl)-1H-imidazo[4,5-c]quinolin-2-yl]methyl}-N-ethyl-3-phenylpropanamide] | 4.70 to 6.00 | < 4.00 | –
CCN(Cc1nc2c(N)nc3cc(-c4cc[nH]n4)ccc3c2[nH]1)C(=O)c1ccccc1Cl [Compound 449, N-{[4-amino-7-(1H-pyrazol-3-yl)-1H-imidazo[4,5-c]quinolin-2-yl]methyl}-2-chloro-N-ethylbenzamide] | 4.00 to 4.70 | < 4.00 | –
CCN(Cc1nc2c(N)nc3cc(-c4cc[nH]n4)ccc3c2[nH]1)C(=O)c1ccncc1 [Compound 450, N-{[4-amino-7-(1H-pyrazol-3-yl)-1H-imidazo[4,5-c]quinolin-2-yl]methyl}-N-ethylpyridine-4-carboxamide] | < 4.00 | < 4.00 | –
CCN(Cc1nc2c(N)nc3cc(-c4cc[nH]n4)ccc3c2[nH]1)C(=O)c1cn(C)c2ccccc12 [Compound 451, N-{[4-amino-7-(1H-pyrazol-3-yl)-1H-imidazo[4,5-c]quinolin-2-yl]methyl}-N-ethyl-1-methyl-1H-indole-3-carboxamide] | 4.00 to 4.70 | < 4.00 | –
CCN(Cc1nc2c(N)nc3cc(-c4cc[nH]n4)ccc3c2[nH]1)C(=O)c1ccc(Cl)cc1 [Compound 452, N-{[4-amino-7-(1H-pyrazol-3-yl)-1H-imidazo[4,5-c]quinolin-2-yl]methyl}-4-chloro-N-ethylbenzamide] | – | < 4.00 | < 4.21
